# In patent US5795887A, “Method of inducing cholecystokinin agonist activity using 1,4- Benzodiazepine compounds” (Glaxo Wellcome Inc., priority 1994, dated 1998):
# Ends that are not written are not given here.
# B1: CCK: a peptide found in the gastrointestinal tract and the central nervous system (peptide, UniProt P06307 21-115, looked up)
# Cholecystokinin: QPVPPADPAGSGLQRAEEAPRRQLRVSQRTDGESRAHLGALLARYIQQARKAPSGRMSIVKNLQNLDPSHRISDRDYMGWMDFGRRSAEEYEYPS
# modifications: Cholecystokinin
# notes: a peptide found in the gastrointestinal tract and the central nervous system
# Experiments:
# rat gastric emptying = test: Rat gastric emptying assay (methyl cellulose/phenol red test meal); assay type: in vivo; conditions: vehicle 66
# Method: 7. RAT GASTRIC EMPTYING PROTOCOL
# Methyl Cellulose (MC) Test Meal
# 1. Disperse MC in water at 80° C. at a final concentration of 1.5% under continuous stirring. Cool to room temperature.
# 2. Add Phenol Red (50 mg/100) to solution.
# 3. Keep solution stirring during entire experiment.
# 1. Food deprive animals for 18 hours.
# 2. Inject test drug/prop. glycol or prop. glycol alone intraperitoneally.
# 3. After 5 minutes, gavage 1.5 mL of Pheno Red/MC solution
# 1. After 20 minutes, decapitate animal
# 2. Clamp stomach at the pylorus and cardia ends, and rinse in 0.9% NaCl.
# 3. Place stomach in 100 mL of 0.1N NaOH, cut into small pieces, and homogenize for 30 seconds.
# 4. Let settle at room temperature for 60 minutes.
# 5. In centrifuge tube, add 5 mL of supernatant and 0.5 mL of trichloroacetic acid (29% w/v), and centrifuge at 2,800 rpm for 20 minutes.
# 6. Decant supernatant, and add 4 mL of 0.5N NaOH and read absorbance at a wavelength of 560 nm.
# The standard stomach is determined from the phenol red recovered in stomachs of rats decapitated immediately after intragastric infusion of MC/phenol red.
# [1] = test system: isolated guinea pig gallbladder; test: Isolated guinea pig gallbladder assay (contraction, % CCK-induced maximal response); conditions: Table 2; for % contraction: Cavia porcellus
# Method: 3. GUINEA PIG GALL BLADDER ASSAY
# Gallbladders are removed from guinea pigs sacrificed by cervical dislocation. The isolated gallbladders are cleaned of adherent connective tissue and cut into two rings from each animal (2-6 mm in length). […] Tissues are connected via gold chains and stainless steel mounting wires to isometric force displacement transducers (Grass, Model FT03 D). Responses are then recorded on a polygraph (Grass, Model 7E).
# Rings are gradually stretched (over a 120 min. period) to a basal resting tension of 1 gm which is maintained throughout the experiment. During the basal tension adjustment period, the rings are exposed to acetylcholine (10^-6 M) four times to verify tissue contractility. The tissues are then exposed to a submaximal dose of sulfated CCK-8 (Sigma, 3×10^-9 M). After obtaining a stable response, the tissues are washed out 3 times rapidly and every 5 to 10 minutes for 1 hour to reestablish a stable baseline.
# As a final test, ACH (10 μM) is added to induce maximal contraction.
# [2] = literature background; cited from earlier work
# [3] = intraperitoneally at 0.1 μmoles/kg
molecule,measurement,setting,value
"COc1ccc(N(C(=O)CN2C(=O)C(Cc3n[nH]c4ccccc34)C(=O)N(c3ccccc3)c3ccccc32)C(C)C)cc1 (stereo not shown) [CCK-A agonist 1, 2[3(1H-Indazol-3-ylmethyl)-2,4-dioxo-5-phenyl-2,3,4,5-tetrahydro-benzo[b]1,4]diazepin1-ylN-isopropyl-N-(4-methoxy-phenyl) acetamide, reference compound]",rat gastric emptying: % emptying,rat gastric emptying; [3],6%
same,% contraction,[1]; delivered at 3 μM,87%
"COc1ccc(N(C(=O)CN2C(=O)C(Cc3n[nH]c4ccccc34)C(=O)N(c3ccccn3)c3ccccc32)C(C)C)cc1 (stereo not shown) [CCK-A agonist 2, reference compound]",rat gastric emptying: % emptying,rat gastric emptying; [3],2.5%
same,% contraction,[1]; delivered at 30 μM,100%
"CCK-8: CCK8 is the Cterminal octapeptide of CCK (DYMGWMDF; ends and bridges not checked; UniProt P06307 96-103, looked up) [reference compound]",rat gastric emptying: % emptying,rat gastric emptying; CCK-8 intraperitoneally at 30 nmoles/kg,0%
same,Isolated guinea pig gallbladder: % contraction,[1]; CCK-8 delivered at 1 μM,100%
B1,inhibition of gastric emptying in humans,[2],inhibit gastric emptying in humans
